Where “and” joins values, the source holds several entries; their conditions need not be identical. Equal values may be shown once.
Experiments:
Type in all cases: cell-based
[1] = tested on: untransfected HEK293 cells; test: Whole-cell patch clamp, untransfected HEK293 cells (control); conditions: 100 μM; data not shown
Description: (§1) To further confirm the Δ^9-THC effect on TRPV2, whole-cell patch clamp studies were performed. The extracellular solution contained (in mM): NaCl, 132; CaCl, 1.8; KCl, 5.4; MgCl2, 0.8; HEPES, 10; glucose, 10; pH=7.4. The intracellular solution used to fill recording pipettes contained (in mM): CsCl, 145; EGTA, 5; HEPES, 10; glucose, 5; pH=7.4. Recordings were performed using the conventional whole-cell patch clamp technique, 2-3 days after transient transfection of human TRPV2 into HEK293 cell or 1-2 days after plating HEK293 cells stably expressing rat TRPV2 onto glass coverslips. Currents were amplified by a patch clamp amplifier and filtered at 2 kHz (Axopatch 200B), sampled at 10 kHz using Digidata 1322A and acquired and analyzed with pClamp 9.0 (all instruments from Molecular Devices, CA). A 600 ms voltage ramp was given once every five seconds from −100 mV to +60 mV. The holding potential between voltage ramps was −100 mV. Extracellular solutions were applied to the cell at 0.5 ml/min via a gravity-fed perfusion system. All experiments were performed at 22° C.

[2] = target: T1, rat TRPV2 (Rattus norvegicus, UniProt Q9WUD2, A713V/L151P/T158I); test: Whole-cell patch clamp, HEK293 cells stably expressing rat TRPV2; conditions: 100 μM
T1 construct: A cDNA fragment encoding the full-length rat TRPV2 was subcloned into pCI-neo; expressed in transfected cells
T1 sequence (Q9WUD2 1-761 L151P/T158I/A713V): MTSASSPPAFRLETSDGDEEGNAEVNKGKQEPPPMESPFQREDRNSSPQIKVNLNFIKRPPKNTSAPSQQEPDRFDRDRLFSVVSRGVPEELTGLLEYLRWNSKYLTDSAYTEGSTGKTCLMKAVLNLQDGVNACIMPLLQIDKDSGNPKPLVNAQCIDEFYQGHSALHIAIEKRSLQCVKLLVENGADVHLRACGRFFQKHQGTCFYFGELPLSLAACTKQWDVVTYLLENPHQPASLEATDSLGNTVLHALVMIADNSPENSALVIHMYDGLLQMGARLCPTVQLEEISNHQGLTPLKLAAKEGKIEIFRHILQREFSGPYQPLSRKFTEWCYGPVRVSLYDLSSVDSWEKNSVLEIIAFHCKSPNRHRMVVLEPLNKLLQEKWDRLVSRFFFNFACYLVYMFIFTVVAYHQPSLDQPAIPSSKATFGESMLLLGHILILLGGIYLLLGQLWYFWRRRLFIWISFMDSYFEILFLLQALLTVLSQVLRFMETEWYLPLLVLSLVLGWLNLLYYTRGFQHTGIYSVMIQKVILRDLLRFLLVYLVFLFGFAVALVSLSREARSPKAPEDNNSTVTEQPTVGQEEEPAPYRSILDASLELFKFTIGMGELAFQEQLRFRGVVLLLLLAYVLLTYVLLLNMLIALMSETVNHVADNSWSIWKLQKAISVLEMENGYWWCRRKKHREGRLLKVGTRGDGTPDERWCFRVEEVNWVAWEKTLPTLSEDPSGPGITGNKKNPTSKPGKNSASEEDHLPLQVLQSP
Description: as §1

[3] = target: T1, rat TRPV2; test: FLIPR calcium mobilization assay in rat TRPV2-expressing HEK293 cells
Description: A cDNA fragment encoding the full-length rat TRPV2 was subcloned into pCI-neo (Promega, Madison, Wis.) mammalian expression vector. The expression construct was then transfected into HEK293 cells with FuGene6 transfection reagent (Roche, Indianapolis, Ind.) according to the vendor's protocol. Stable cell lines were selected by growth in the presence of 400 μg/ml G418. Single G418 resistant clones were isolated and purified.
The rat TRPV2-expressing HEK293 cells were seeded in a 384-well plate at a concentration of 5×10^3 cells/well and incubated overnight at 37° C. The following day, the cells were loaded with buffer and calcium dye 3 (Molecular Devices, Sunnyvale, Calif.) in a final volume of 50 μl and incubated for 30 minutes at 37° C./5% CO2 followed by 30 additional minutes at room temperature. The fluorescence intensity was measured by a fluorescent plate reader (FLIPR) before, during and after the addition of test compounds.
All data was normalized to that observed for 100 μM Δ^9-THC.

## Delta-9-tetrahydrocannabinol [Δ^9-THC]
[1]
  current above control level in untransfected HEK293 cells: no current above control level
[2]; 22° C., hyperpolarized and depolarized potentials
  whole-cell current amplitude in HEK293 cells expressing rTRPV2 compared to control: significant increase of the whole-cell current amplitude
[2]; whole-cell patch clamp
  reversal potential of the activated current: ~0 mV
[3]; 100 μM
  elevation of intracellular Ca2+ in rat TRPV2-expressing HEK293 cells: robust elevation of intracellular Ca^2+
[3]; 100 μM compound (anandamide 120 μM), normalized to 100 μM Δ^9-THC
  % Response (activation of rat TRPV2): 100%
[3]; FLIPR concentration-response, FIG. 4B
  Hill slope of rat TRPV2 activation: 1.04
[3]; FLIPR, rat TRPV2-expressing HEK293 cells, read-out: EC50 (activation of rat TRPV2)
  EC50: 15.7 µM and 15.5 µM

Source: patent publication US7575882B2, “Compositions and methods for identifying modulators of TRPV2” (Janssen Pharmaceutica N. V., priority 2005, dated 2009)
